Experimental findings from patent US9540323B2 (BRISTOL-MYERS SQUIBB COMPANY, priority 2012, dated 2017) are described below.

For assay [1], the system named is human platelet rich plasma (PRP). Briefly: ADP induced platelet aggregation assay. The following applies: Homo sapiens, Platelet, 5 min, read-out: PA IC50 (μM) @ 10 μM ADP, human PRP, 10 μM ADP, AUC at 5 minute.
Description: The ability of P2Y1 antagonists covered in the present invention to inhibit platelet aggregation induced by 10 μM ADP was tested using human platelet rich plasma (PRP) as described in Platelet Protocols: Research and Clinical Laboratory Procedures (White, M. M. et al., Academic Press (1999)). Human blood was collected in 30 μM (final concentration in blood) argatroban (GSK) as the anticoagulant at a ratio of 1 mL per 9 mL of blood. The PRP was isolated by centrifugation at 170 g for 12 minutes. The platelet poor plasma (PPP) was used as the blank for optical aggregometry. Compounds of the present invention in DMSO solution was preincubated with 250 μL PRP at 37° C. for 1 minute with stirring speed of 1000 rpm. Aggregation was initiated by addition of 2.5 μL of 1 mM ADP (Chrono-log, Havertown, Pa.) for a final ADP concentration of 10 μM. Platelet aggregation was monitored using Optical Aggregometer (Chrono-log, Havertown, Pa.) and the area under the curve (AUC) at 5 minute was measured. IC50 was calculated using vehicle control as 0% inhibition.
For assay [2], the target named is T1, cloned human P2Y1 receptors (Homo sapiens (Human), UniProt P47900). Briefly: Binding Assay A - membrane binding assay, [33P] 2MeS-ADP (WGA FlashPlate). The note with it: values marked * in Table 1; 0.5 nM [33P] 2MeS-ADP, Cheng-Prusoff; read-out: P2Y1 Ki (nM) using binding assay A. The text has this:
A membrane binding assay was used to identify inhibitors of [^33P] […] The cDNA clone for human P2Y1 was obtained from Incyte Pharmaceuticals and its sequence confirmed by established techniques (for a compendium of techniques used see Ausubel, F. et al., Current Protocols in Molecular Biology, John Wiley and Sons, NY, NY (1995)). The essential coding sequences were subcloned into pCDNA 3.1 (Invitrogen) to produce a P2Y1 expression construct. This construct was then transfected into the human embryonic kidney cell line HEK-293 and stable transfectants selected in GENETICIN® (G418 sulfate; Life Technologies). […] Membranes were prepared by growing HEK293 #49 in 150 mm dishes in DMEM/10% FBS in the presence of 1 mg/ml G418 until cells were 80-90% confluent. Plates were then washed with cold (4° C.) D-PBS twice and cells harvested by scraping into 10 mL D-PBS. Cells were pelleted by centrifugation (1,000 g, 10 min, 4° C.) and the resulting pellet resuspended in Lysis Buffer (10 mM Tris (7.4), 5 mM MgCl2 containing Complete protease inhibitor cocktail (Roche Cat #1873580) as recommended by the manufacturer). The suspension was then homogenized in a Dounce homogenizer (10-15 strokes; B pestle, on ice) and the homogenate spun at 1,000 g, 4° C., 5 min to pellet large debris. The supernatant was centrifuged at 150,000 g, 4° C., for 1 hour and the resulting membrane pellet resuspended in 0.5-1 mL of Buffer B (15 mM HEPES (7.4), 145 mM NaCl, 0.1 mM MgCl2, 5 mM EDTA, 5 mM KCl) and stored at −70° C. until used.
Binding reactions were performed in WGA FLASHPLATE®s (PerkinElmer Life Sciences, Cat # SMP105A) in a volume of 200 μL containing ˜45 fmol of P2Y1 receptor (5 μg of total protein), 0.5 nM [^33P] […] Reactions were allowed to proceed to completion at room temperature for 1 hour and then the aqueous solution aspirated. Plates were sealed and the residual [^33P] bound to the plate determined by scintillation counting.

Assay [3] concerns the target T1, cloned human P2Y1 receptors. Briefly: Binding Assay B - Scintillation Proximity Assay (SPA) for P2Y1 binding, [33P] 2MeS-ADP. The following applies: SPA, 0.3 nM [33P] 2MeS-ADP, Cheng-Prusoff; read-out: P2Y1 Ki (nM) using binding assay B. How it is done: Binding Assay B—Scintillation Proximity Assay (SPA) for P2Y1 Binding
A SPA membrane binding assay was used to identify inhibitors of [^33P] […] Reactions were allowed to proceed to completion at room temperature for 1 hour followed by centrifugation of the plate for 5 min. About 40 μL of the aqueous solution was aspirated. Plates were sealed and the [^33P]

Structures can show the parent of a compound that is named as a salt.

T1 sequence (P47900 whole entry): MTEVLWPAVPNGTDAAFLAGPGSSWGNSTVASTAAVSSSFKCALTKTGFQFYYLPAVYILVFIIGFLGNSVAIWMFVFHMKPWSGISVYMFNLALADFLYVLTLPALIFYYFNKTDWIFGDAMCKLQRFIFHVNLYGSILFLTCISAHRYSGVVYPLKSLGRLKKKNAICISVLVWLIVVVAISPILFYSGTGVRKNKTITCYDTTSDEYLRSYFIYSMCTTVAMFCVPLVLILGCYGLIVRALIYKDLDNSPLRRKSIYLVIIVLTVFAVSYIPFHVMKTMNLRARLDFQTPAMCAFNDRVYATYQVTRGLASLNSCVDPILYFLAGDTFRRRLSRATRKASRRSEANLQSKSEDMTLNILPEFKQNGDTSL

Regarding `CCC1(CC)CN(c2ccccc2NC(=O)Nc2nc(C(C)C)ns2)c2c(O)ccc(Cl)c21` [Example 48, 1-(2-(4-Chloro-3,3-diethyl-7-hydroxyindolin-1-yl)phenyl)-3-(3-isopropyl-1,2,4-thiadiazol-5-yl)urea], the IC50 in assay [1] was 0.48 µM. Further, in assay [2], the Ki worked out at 7 nM.

Regarding `CC1(C)CN(c2ccccc2NC(=O)Nc2ccc(OC(F)(F)F)cc2)c2c(O)ccc(-c3ccc(F)cn3)c21` [Example 123, 1-(2-(4-(5-Fluoropyridin-2-yl)-7-hydroxy-3,3-dimethylindolin-1-yl)phenyl)-3-(4-(trifluoromethoxy)phenyl)urea], in assay [1], the IC50 was 0.43 µM. In assay [2], the Ki is 4.5 nM.

`CC(C)c1cnc(-c2ccc(O)c3c2C(C)(C)CN3c2ccccc2NC(=O)Nc2ccc(OC(F)(F)F)cc2)nc1` [Example 126, 1-(2-(7-Hydroxy-4-(5-isopropylpyrimidin-2-yl)-3,3-dimethylindolin-1-yl)phenyl)-3-(4-(trifluoromethoxy)phenyl)urea]: the IC50 in assay [1] is 0.3 µM. Also, the Ki in assay [2] was found to be 4.1 nM.

`CC1(C)CN(c2ccccc2NC(=O)Nc2csc(C(F)(F)F)n2)c2c(O)cc(F)c(-c3ccc(C(F)(F)F)cc3)c21` [Example 217, 1-(2-(5-Fluoro-7-hydroxy-3,3-dimethyl-4-(4-(trifluoromethyl)phenyl)indolin-1-yl)phenyl)-3-(2-(trifluoromethyl)thiazol-4-yl)urea]: the IC50 in assay [1] came to 0.16 µM. The Ki in assay [2] turned out to be 8 nM.

On to `CC1(C)CN(c2ccccc2NC(=O)Nc2nc3ccc(Cl)nc3s2)c2c(O)ccc(-c3nc4ccc(F)cc4s3)c21` [Example 176, 1-(5-Chlorothiazolo[5,4-b]pyridin-2-yl)-3-(2-(4-(6-fluorobenzo[d]thiazol-2-yl)-7-hydroxy-3,3-dimethylindolin-1-yl)phenyl)urea], for which, in assay [1], the IC50 came out at 0.35 µM. The Ki in assay [2] was determined as 13 nM.

As to `CC1(C)CN(c2ccccc2NC(=O)Nc2nc3ccc(F)cc3s2)c2c(O)ccc(-c3nc4ccc(F)cc4s3)c21` [Example 175, 1-(6-Fluorobenzo[d]thiazol-2-yl)-3-(2-(4-(6-fluorobenzo[d]thiazol-2-yl)-7-hydroxy-3,3-dimethylindolin-1-yl)phenyl)urea], the IC50 in assay [1] came out at 0.35 µM. Besides, in assay [2], the Ki was 17.6 nM.

As for `CC1(C)CN(c2ccccc2NC(=O)Nc2nc3ccc(F)cc3s2)c2c(O)ccc(-c3nc4cc(F)ccc4s3)c21` [Example 171, 1-(6-Fluorobenzo[d]thiazol-2-yl)-3-(2-(4-(5-fluorobenzo[d]thiazol-2-yl)-7-hydroxy-3,3-dimethylindolin-1-yl)phenyl)urea], the IC50 in assay [1] was found to be 0.36 µM. Further, in assay [2], the Ki was found to be 8.7 nM.

For the compound `CCC1(CC)CN(c2ccccc2NC(=O)Nc2ccc(C3CCCN3CC(C)C)cc2)c2c1ccc(F)c2O` (centres unmarked) [Example 36, 1-(2-(3,3-Diethyl-6-fluoro-7-hydroxyindolin-1-yl)phenyl)-3-(4-(1-isobutylpyrrolidin-2-yl)phenyl)urea], the IC50 in assay [1] was found to be 0.21 µM. In addition, the Ki in assay [2] amounted to 5.7 nM.

`CC1(C)CN(c2ccccc2NC(=O)Nc2csc(C(F)(F)F)n2)c2c(O)cc(F)c(-c3ccc(Cl)cc3)c21` [Example 218, 1-(2-(4-(4-Chlorophenyl)-5-fluoro-7-hydroxy-3,3-dimethylindolin-1-yl)phenyl)-3-(2-(trifluoromethyl)thiazol-4-yl)urea]: the IC50 in assay [1] is 0.37 µM. In assay [2], the Ki came to 9.3 nM.

On to `CC1(C)CN(c2ccc(F)cc2NC(=O)Nc2nc3ccc(F)cc3s2)c2c(O)ccc(C(F)(F)F)c21` [Example 63, 1-(5-Fluoro-2-(7-hydroxy-3,3-dimethyl-4-(trifluoromethyl)indolin-1-yl)phenyl)-3-(6-fluorobenzo[d]thiazol-2-yl)urea], for which the Ki in assay [3] came out at 20.8 nM. The IC50 in assay [1] came to 0.18 µM.

Consider `CC1(C)CN(c2ccccc2NC(=O)Nc2ccc(OC(F)(F)F)cc2)c2c(O)ccc(-c3ccc(F)c(F)c3)c21` [Example 204, 1-(2-(4-(3,4-Difluorophenyl)-7-hydroxy-3,3-dimethylindolin-1-yl)phenyl)-3-(4-(trifluoromethoxy)phenyl)urea], for which, in assay [3], the Ki is 7.7 nM. In addition, in assay [1], the IC50 stood at 0.4 µM.

Regarding `Cc1cc(-c2c(F)cc(O)c3c2C(C)(C)CN3c2ccccc2NC(=O)Nc2ccc(OC(F)(F)F)cc2)ccn1` [Example 191, 1-(2-(5-Fluoro-7-hydroxy-3,3-dimethyl-4-(2-methylpyridin-4-yl)indolin-1-yl)phenyl)-3-(4-(trifluoromethoxy)phenyl)urea], the Ki in assay [3] is 12.3 nM. Besides, the IC50 in assay [1] is 0.19 µM.

In the case of `CC(C)(C)c1ncc(-c2c(F)cc(O)c3c2C(C)(C)CN3c2ccccc2NC(=O)Nc2ccc(OC(F)(F)F)cc2)cn1` [Example 160, 1-(2-(4-(2-(tert-Butyl)pyrimidin-5-yl)-5-fluoro-7-hydroxy-3,3-dimethylindolin-1-yl)phenyl)-3-(4-(trifluoromethoxy)phenyl)urea], the inhibitory constant (Ki) in assay [3] stood at 13.1 nM. Besides, the IC50 in assay [1] is 0.09 µM.

For the compound `CC1(C)CN(c2ccccc2NC(=O)Nc2nc3ccc(Cl)cc3s2)c2c(O)ccc(C(F)(F)F)c21` [Example 19, 1-(6-Chlorobenzo[d]thiazol-2-yl)-3-(2-(7-hydroxy-3,3-dimethyl-4-(trifluoromethyl)indolin-1-yl)phenyl)urea], the Ki in assay [3] was 23.6 nM. Further, the IC50 in assay [1] was 0.12 µM.

As to `CC1(C)CN(c2ccccc2NC(=O)Nc2ccc(OC(F)(F)F)cc2)c2c(O)ccc(-c3cc(F)nc(F)c3)c21` [Example 111, 1-(2-(4-(2,6-Difluoropyridin-4-yl)-7-hydroxy-3,3-dimethylindolin-1-yl)phenyl)-3-(4-(trifluoromethoxy)phenyl)urea, TFA], the Ki in assay [3] worked out at 7.5 nM. Also, in assay [1], the IC50 came to 0.14 µM.

In the case of `CC1(C)CN(c2ccccc2NC(=O)Nc2csc(C(F)(F)F)n2)c2c(O)cc(F)c(-c3nc4cc(Cl)ccc4s3)c21` [Example 180, 1-(2-(4-(5-Chlorobenzo[d]thiazol-2-yl)-5-fluoro-7-hydroxy-3,3-dimethylindolin-1-yl)phenyl)-3-(2-(trifluoromethyl)thiazol-4-yl)urea], in assay [3], the Ki is 28.4 nM. In assay [1], the IC50 was 0.56 µM.

Regarding `CC1(C)CN(c2ccccc2NC(=O)Nc2ccc(OC(F)(F)F)cc2)c2c(O)cc(F)c(-c3ccc(C(F)(F)F)cc3)c21` [Example 216, 1-(2-(5-Fluoro-7-hydroxy-3,3-dimethyl-4-(4-(trifluoromethyl)phenyl)indolin-1-yl)phenyl)-3-(4-(trifluoromethoxy)phenyl)urea], the Ki in assay [3] was 54.7 nM. The 50% inhibitory concentration (IC50) in assay [1] was 0.14 µM.

In the case of `CC1(C)CN(c2ccccc2NC(=O)Nc2ccc(OC(F)(F)F)cc2)c2c(O)ccc(-c3nc4cccnc4o3)c21` [Example 89, 1-(2-(7-Hydroxy-3,3-dimethyl-4-(oxazolo[5,4-b]pyridin-2-yl)indolin-1-yl)phenyl)-3-(4-(trifluoromethoxy)phenyl)urea], the Ki in assay [3] came out at 12.3 nM. For the same compound, the IC50 in assay [1] turned out to be 0.99 µM.

Turning to `CC(C)n1nc(-c2c(F)cc(O)c3c2C(C)(C)CN3c2ccccc2NC(=O)Nc2ccc(OC(F)(F)F)cc2)cc1C(F)(F)F` [Example 271, 1-(2-(5-Fluoro-7-hydroxy-4-(1-isopropyl-5-(trifluoromethyl)-1H-pyrazol-3-yl)-3,3-dimethylindolin-1-yl)phenyl)-3-(4-(trifluoromethoxy)phenyl)urea], the Ki in assay [3] stood at 12.4 nM. Further, the IC50 in assay [1] is 0.07 µM.
